Source: US20140069008A1, “PLANT C[…] UTILIZING PHOSPHITE AS A NUTRIENT AND AS A CONTROL AGENT FOR WEEDS AND ALGAE” (Centro de Investigacion y de Estudios Avanzados del …, priority 2010, published 2014)

Legend:
[1] = tested on: ptxDNt plants; test: Greenhouse growth in sterilized sand and vermiculite amended with Phi, transgenic tobacco; type: in vivo, Nicotiana tabacum L. cv Xanthi
From the text: (§1) To determine whether expression of the ptxD gene would enable other plant species more amenable for physiological and weed-control studies to use Phi as a P source, we generated transgenic tobacco plants harboring the 35S::PTXD construct (ptxDNt lines) (see FIG. 8). Transgenic and control seedlings were transferred to plastic bags containing a sterilized mixture of sand and vermiculite amended with either Phi or Pi as P source. […] Because the main negative effect in vitro of Phi on WT plants was on root growth, we also examined the root system of transgenic and control plants grown under different treatments. […] Transgenic plants fertilized with Phi quantitatively performed as well as WT and ptxDNt plants fertilized with Pi (see FIG. 10A).
Pi is essential for CO2 fixation in the chloroplast, and plants suffering from Pi starvation have reduced levels of photosynthesis. […] When fertilized with either Pi or Phi, ptxDNt plants had rates of photosynthesis similar to those observed for control plants grown in Pi (see FIG. 10A). The effect on photosynthesis and root system development of control plants fertilized with Phi could not be evaluated because these plants died soon after transplantation.
(§2) For Arabidopsis greenhouse experiments, pots were filled with 0.3 kg of a sterilized mixture of sand and vermiculite (1:1) and mechanically mixed with either Pi (KH2PO4) or Phi (NaH2PO3.5H2O) at 10, 20, and 40 mg·kg^−1. […] At harvest, aerial parts of Arabidopsis (36 days old) and Tobacco (120 days old) plants were cut off at the soil surface and dried in a vacuum oven at 70° C. for biomass quantification. […] Photosynthesis rate was determined using a portable Li-6200 photosynthesis system (Li-Cor, Lincoln, Nebr., USA) on fully expanded, young leaves. Leaf area was calculated using the software ImageJ [35].
FIG. 10. […] Note that Phi was not detected either in leaf or floral tissues of ptxDNt-36 plants grown in a Phi-amended substrate. * Indicates measurements that are statistically different from the corresponding control (p<0.005).

[2] = tested on: False Brome (Brachypodium distachyon); test: Growth competition experiment, weed; type: in vivo
From the text: (§3) In addition to the incapacity of plants to metabolize it, Phi acts as a potentially effective herbicide mainly by interfering with the signaling pathways that induce the rescue system activated in Pi-starved plants. Cultivation of transgenic plants expressing the ptxD gene, combined with Phi as a P fertilizer, could be an effective weed control system in soils with low Pi availability. To test this idea, we carried out growth competition experiments between ptxDNt plants and the grass weed False Brome (Brachypodium distachyon), using Phi or Pi as a P fertilizer. In unfertilized soil, both B. distachyon and tobacco plants had limited growth. When soil was fertilized with Pi, the growth of both species increased, with the grass showing faster growth than the tobacco plants.
(§4) For growth competition experiments, different proportions of seeds from ptxDNt-80 and the following weeds were utilized (transgenic:weed): Ipomoea purpurea (13:30), Brachiaria plantaginea (13:60), Amaranthus hybridus (5:15), Brachypodium distachyon (50:50). All seeds were sown in a tray containing a nonsterilized mixture of sand and vermiculite (2 kg for experiments with Amaranthus hybridus and 6 kg for the rest). […] Plants were harvested (at 54 day old for Brachiaria and Ipomoea or at 40 day old for A. hybridus experiments) for biomass quantification. […]

[3] = tested on: control plants (WT Arabidopsis); test: Greenhouse growth in sterilized sand and vermiculite supplemented with Phi, control plants; type: in vivo
Protocol: For Arabidopsis greenhouse experiments, pots were filled with 0.3 kg of a sterilized mixture of sand and vermiculite (1:1) and mechanically mixed with either Pi (KH2PO4) or Phi (NaH2PO3.5H2O) at 10, 20, and 40 mg·kg^−1. For tobacco experiments, 3 kg of the same substrate were weighed in black plastic bags amended with 20, 40, and 80 mg·kg^−1 of Pi or Phi. One plant per pot and 8-10 plants per line per treatment were included. Pots were arranged following a completely random design in the greenhouse. At harvest, aerial parts of Arabidopsis (36 days old) and Tobacco (120 days old) plants were cut off at the soil surface and dried in a vacuum oven at 70° C. for biomass quantification. In all cases, seeds were collected separately. Photosynthesis rate was determined using a portable Li-6200 photosynthesis system (Li-Cor, Lincoln, Nebr., USA) on fully expanded, young leaves. Leaf area was calculated using the software ImageJ [35].
FIG. 5. Transgenic Arabidopsis plants expressing a phosphite oxidoreductase can use phosphite as a phosphorus source. (A) Comparative growth of seedlings from ptxDAt-3, -5 and -7 lines, and wild type (WT, Col-0) in solid media containing 1 mM phosphate (Pi) or 1 mM phosphite (Phi). (B) Transgenic Arabidopsis lines and WT control grown in vertical plates containing 1 mM Phi. […]

[4] = tested on: ptxDNt plants (ptxDNt-80); test: Growth competition experiment, transgenic tobacco; type: in vivo, Nicotiana tabacum; conditions: Phi fertilization, competition with B. distachyon
From the text: as §3, §4

[5] = tested on: WT plants (tobacco); test: Greenhouse growth in sterilized sand and vermiculite amended with Phi, WT tobacco; type: in vivo, Nicotiana tabacum L. cv Xanthi; conditions: substrate supplemented with Phi, after transplantation
From the text: as §1
as §2, with “[35]. […]” for “[35].”

[6] = tested on: control seedlings (wild type, Col-0); test: Germination and growth of non-transformed seedlings in media lacking Pi, supplemented with Phi; type: in vivo, Arabidopsis
Protocol: To confirm that 35S::PTXD plants are capable of using Phi as a P source, seeds from transgenic lines and non-transformed siblings were germinated in media lacking Pi, and supplemented with Phi.
FIG. 5. Transgenic Arabidopsis plants expressing a phosphite oxidoreductase can use phosphite as a phosphorus source. (A) Comparative growth of seedlings from ptxDAt-3, -5 and -7 lines, and wild type (WT, Col-0) in solid media containing 1 mM phosphate (Pi) or 1 mM phosphite (Phi). (B) Transgenic Arabidopsis lines and WT control grown in vertical plates containing 1 mM Phi. (C) Transgenic and WT plants grown in a sterilized mixture of sand and vermiculite fertilized with Pi or Phi as phosphorus (P) source. Treatment without addition of a P source (NO P) was utilized as a control. A top view of WT plants in media containing 40 mg·kg^−1 Phi is included. Photographed plants are representative of two experiments with 8-10 plants/treatment/line each. The bar represents 5 cm to indicate scale.
FIG. 6. Growth of WT Arabidopsis and tobacco plants in phosphite-containing media. Comparative growth of Arabidopsis and tobacco non-transformed seedlings in media lacking a phosphorus (P) source supplemented with 1 mM or 0.005 mM phosphate (Pi) or 1 mM phosphite (Phi).

[7] = tested on: transgenic tobacco line ptxDNt-80; test: Cultivation of transgenic tobacco in non-sterilized acidic agricultural soil amended with phosphite; type: in vivo
Protocol: The results of Example 1 were obtained from greenhouse experiments with plants grown in a sterilized mixture of sand and vermiculite as the substrate. In contrast, the present example reports experiments performed in a greenhouse using a non-sterilized agricultural soil as a substrate, to determine whether the cultivation system disclosed herein works equally well with a natural substrate. Although the experiments were performed in a greenhouse, the agricultural soil was not sterilized and therefore contained soil organisms, such as bacteria and fungi, that live naturally in the soil.
An acidic agricultural soil was obtained from North Mexico. The soil has a low content of phosphorus, about 5 parts per million. The soil was used directly from the field, and was not sterilized. The soil is a sandy loam, composed of about 30% clay, 21% silt, and 49% sand, and is acidic, with a pH of 5.1. The soil has an electrical conductivity (milli-mhos per centimeter) of 0.20. The soil has 1.4% organic matter. Besides phosphorus, the soil has the following assimilable nutrients and minor elements (parts per million): nitrogen 5, potassium 100, iron 7, manganese 26, copper 0.2, and zinc 0.9. The soil has soluble cations and anions (milli-equivalents per liter) as follows: potassium 0.15, calcium 1.5, magnesium 0.5, sodium 0.5, bicarbonates 1.0, and chlorides 0.7.
A transgenic tobacco line, ptxDNt-80, was used for the experiments. The transgenic line has been modified genetically to express a bacterial phosphite oxidoreductase, namely, PtxD (SEQ ID NO:1). The soil was amended with 40, 60, or 80 parts per million of phosphorus by addition of phosphate or phosphite. Then, seeds from the transgenic and control lines were sowed on the soil. The growth of the transgenic line was measured at different days after germination.

phosphite
total biomass difference versus plants under similar Pi regime ([1]; 80 mg·kg^−1 of Phi, greater than Pi, statistically significant): 40%
total biomass versus plants under similar Pi regimes ([1]; 20 and 40 mg·kg^−1 of Phi): slightly higher
rate of photosynthesis versus control plants grown in Pi ([1]; fertilized with Phi): similar
decrease of weed biomass with respect to Pi fertilization ([2]; Phi fertilization, competition with ptxDNt tobacco): 90%
time at which weed growth was completely arrested ([2]; Phi used as fertilizer): 15-20 days after sowing
survival of control plants [3]: ≤ 20 days
increase of tobacco biomass with respect to Pi fertilization [4]: 865%
development of WT plants [5]: completely arrested their development and died a few days after transplantation
growth of control seedlings [6]: completely arrested
more seeds than either line fertilized with the same amount of phosphate ([7]; 20 parts per million phosphite, four months after germination): 33%
height versus transgenic or control plants fertilized with phosphate ([7]; 68 or 74 days after germination): greater height
biomass of leaves and stems versus either line fertilized with phosphate ([7]; 80 parts per million phosphite, 75 days after germination): higher biomass
total production of capsules and seeds per plant versus either line fertilized with phosphate ([7]; four months after germination): similar
